We go through two compounds from patent US9908870B2, “Crystalline form of a benzimidazole derivative and a preparation method thereof” (CJ HEALTHCARE CORPORATION, priority 2015, dated 2018).

Format in all cases: physicochemical
The nature of data set [1]: Crystal stability test under severe stability testing conditions. On the procedure: Finally, a crystal stability test was performed to examine the stability of the crystalline form itself, and the results are shown in Table 4 below.
Data set [2] is described as follows: Hygroscopicity test. From the text:
Compounds with low hygroscopicity are advantageous in preparing formulations, and also are advantageous for storage. Additionally, compounds with high hygroscopicity are not advantageous in that they are difficult to formulate, and reproducible results may hardly be obtained even though formulations can be successfully achieved.

Data set [3] can be described thus: Stability test under a photo-stressed condition.
Data set [4] is described as follows: Static-electricity inducibility test (bulk density, tapped density, Carr's Index). Particulars: for CI (Carr's Index): CI=100×(1−BD/TD), ≦30 value - good flowability.
Where [5] appears, read: after 4 weeks at 60±2° C., 80±5% RH.
Setting [6] is: after 4 weeks, photo-stressed condition.
Setting [7] is: after 4 weeks, photo-stressed condition (1,200,000 lux or higher and 200 W/m^2 or higher).

Where “and” joins values, the source holds several entries; their conditions need not be identical. Equal entries are not always repeated.

For `Cc1nc2c(O[C@H]3CCOc4cc(F)cc(F)c43)cc(C(=O)N(C)C)cc2[nH]1` [Crystalline form A, 4-[((4S)-5,7-difluoro-3,4-dihydro-2H-chromen-4-yl)oxy]-N,N,2-trimethyl-1H-benzimidazole-6-carboxamide], the Crystalline form entry in data set [1] (setting [5]) and in data set [1] (initial stage) was “crystalline form A” in each case. Further, the DSC in data set [1] (setting [5]) and in data set [1] (initial stage) was 223 °C each time. Moreover, the Hygroscopicity in data set [2] (33% RH, after 4 weeks) worked out at 0.17; in data set [2] (75% RH, after 4 weeks), 0.20; in data set [2] (93% RH, after 4 weeks), 0.28. The Hygroscopicity values entry in data set [2] (stored at 33%, 75% and 93% relative humidity for 4 weeks) is recorded as “below 0.3”. For the same compound, the “Content of impurities (related compounds)” value in data set [3] (setting [6]) is 0.10%; in data set [3] (after 4 weeks, photo-stressed condition, listed as crystalline form A), at most 0.1%; in data set [3] (initial stage), 0.10%; in data set [3] (initial stage, listed as crystalline form A) it was at most 0.1%. Moreover, the Optical purity in data set [3] (setting [6]) is listed as 100%. In addition, the Appearance entry in data set [3] (setting [7]) and in data set [3] (initial stage) was “white” in each case. In data set [4], the “BD (bulk density)” value is 0.34 g/mL and 0.32 g/mL. In data set [4], the “TD (tapped density)” value was determined as 0.45 g/mL. In data set [4], the “CI (Carr's Index)” value is 24.44% and 28.89%.

For the compound `Cc1nc2c(O[C@H]3CCOc4cc(F)cc(F)c43)cc(C(=O)N(C)C)cc2[nH]1` [Non-crystalline form, 4-[((4S)-5,7-difluoro-3,4-dihydro-2H-chromen-4-yl)oxy]-N,N,2-trimethyl-1H-benzimidazole-6-carboxamide], the Hygroscopicity worked out at 1.90 in data set [2] (33% RH, after 4 weeks); 4.09 in data set [2] (75% RH, after 4 weeks); 5.25 in data set [2] (93% RH, after 4 weeks); 1.32 in data set [2] (initial stage). Besides, in data set [3] (after 4-week photoexposure vs initial), the “Increase in content of related compounds” value is listed as at least 3 fold. Moreover, the “Increase in content of optical isomers” value in data set [3] (after 4 weeks photo-stressed condition vs initial) was determined as 10 fold. For the same compound, the “Content of impurities (related compounds)” value in data set [3] (setting [6]) worked out at 0.49%; in data set [3] (initial stage), 0.16%; in data set [3] (initial stage, listed as non-crystalline form), 0.16%. The “Content of optical isomers” value is listed as 0.47% in data set [3] (setting [6]) and 0.04% in data set [3] (initial stage). Moreover, the Appearance entry is “yellow” in data set [3] (setting [7]) and “white” in data set [3] (initial stage). Moreover, in data set [4], the “BD (bulk density)” value was 0.23 g/mL and 0.22 g/mL. Besides, the “TD (tapped density)” value in data set [4] was 0.39 g/mL and 0.38 g/mL. In addition, in data set [4], the “CI (Carr's Index)” value was 41.02% and 42.11%.
